Assay [1] has as its system Mycobacterium tuberculosis. The assay can be described thus: Antitubercular activity against Mycobacterium tuberculosis H37Rv ATCC 27294 assessed as growth inhibition at 250 ug/ml measured every 24 hrs by BACTEC radiosusceptibility assay. Format: functional, organism-based.
Assay [2] has as its system Mycobacterium tuberculosis. The assay can be described thus: Antitubercular activity against Mycobacterium tuberculosis H37Rv ATCC 27294 assessed as growth inhibition measured every 24 hrs by BACTEC radiosusceptibility assay. Format: functional. Conditions: H37Rv ATCC 27294, 24 h.
The next assay deals with HEK293. The assay can be described thus: Cytotoxicity against human HEK293 cells assessed as inhibition of cell viability after 24 hrs by MTT assay. Format: cell-based. Conditions: HEK293, 24 h. For orientation: Tetrazolium assays rely on reduction of a dye to a coloured formazan, in cell work by metabolically active cells.
Assay [3] can be described thus: Selectivity ratio of IC50 for human HEK293 cells to MIC for Mycobacterium tuberculosis H37Rv ATCC 27294. Format: functional.
Assay [4] relates to Mycobacterium tuberculosis. The assay can be described thus: Antitubercular activity against Mycobacterium tuberculosis assessed as growth inhibition. Type of assay: functional.
The next assay concerns Mycobacterium sp. The assay can be described thus: Antibacterial activity against Mycobacterium sp. assessed as growth inhibition. Format: functional.

One may read the MIC as the least concentration at which growth counts as inhibited. What is called IC50 is the concentration that inhibits the measured activity by half.

Each structure is given as a SMILES string. Values after ≈ are worked out from the molar mass of the structure shown. Active and inactive are the calls of the source. No cut-off for these calls is given here. Bounds are passed on as bounds.

On to `COc1ccc2c(/C=C/c3ccc(OCCN4CCCC4)cc3)c(-c3ccccc3)c(=O)oc2c1`, for which the “growth inhibition (GI)” value in assay [1] is “inactive”.
Take `COc1ccc2c(/C=C/c3ccc(OC(C)CN(C)C)cc3)c(-c3ccccc3)c(=O)oc2c1` (stereo not drawn): the minimum inhibitory concentration (MIC) in assay [2] was 7.5 µg/mL (≈ 16.5 µM). For the same compound, the IC50 with HEK293 was 5 µg/mL (≈ 11 µM).
Consider `COc1ccc2c(/C=C/c3ccc(OC(C)=O)cc3)c(-c3ccccc3)c(=O)oc2c1`, for which the “growth inhibition (GI)” value in assay [1] is “inactive”.
Same read-out and setting: for `COc1ccc(/C=C/C(=O)c2ccc(O)cc2O)cc1` the value was “inactive”.
For the compound `COc1ccc2c(/C=C/c3ccc(O)cc3)c(-c3ccccc3)c(=O)oc2c1`, the MIC in assay [2] is 30 µg/mL (≈ 81 µM). The Ratio in assay [3] turned out to be 16. Moreover, the concentration for half-maximal inhibition (IC50) with HEK293 is > 250 µg/mL.
Take `C=CC(C)(C)c1cc(/C=C/C(=O)c2ccc(O)cc2)c(OC)cc1O` [LICOAGROCHACONE A]: the MIC in assay [4] is 7.1 µg/mL (≈ 21 µM).
Regarding `COc1ccc(/C=C/c2c(-c3ccccc3)c(=O)oc3cc(O)ccc23)cc1`, in assay [2], the MIC came to 125 µg/mL (≈ 337 µM). Moreover, the IC50 in the assay with HEK293 is > 250 µg/mL.
Take `CC(C)=CCC/C(C)=C/CC/C(C)=C/Cc1c(O)c2ccccc2oc1=O`: the MIC with Mycobacterium sp. is 2 µg/mL (≈ 5.46 µM).
With `CN[C@@H]1[C@H](O[C@H]2[C@H](O[C@H]3[C@H](O)[C@@H](O)[C@H](N=C(N)N)[C@@H](O)[C@@H]3N=C(N)N)O[C@@H](C)[C@]2(O)C=O)O[C@@H](CO)[C@H](O)[C@H]1O` [STREPTOMYCIN], the minimal inhibitory concentration (MIC) in assay [2] is 2 µg/mL (≈ 3.44 µM).
On to `COc1ccc2c(/C=C/c3ccc(OCCN4CCCCC4)cc3)c(-c3ccccc3)c(=O)oc2c1`, for which the MIC in assay [2] stood at 3.5 µg/mL (≈ 7.27 µM). For the same compound, the Ratio in assay [3] was found to be 2.85. The IC50 in the assay on HEK293 stood at 5 µg/mL (≈ 10.4 µM).
In the case of `COc1cc2oc(=O)ccc2cc1CC=C(C)C` [SUBEROSIN], the minimum inhibitory concentration (MIC) in assay [4] came out at 16 µg/mL (≈ 65.5 µM).
Turning to `COc1ccc(C(=O)/C(=C/c2ccc(OCC(=O)O)cc2)c2ccccc2)cc1`, the MIC in assay [2] was determined as 250 µg/mL (≈ 644 µM).
Consider `COc1ccc2ccc(=O)oc2c1CC=C(C)C` [OSTHOLE], for which the MIC in assay [4] amounted to 32 µg/mL (≈ 131 µM).
On to `COc1ccc(C(=O)/C=C/c2ccc(O)cc2)c(O)c1`, for which the “growth inhibition (GI)” value in assay [1] was “inactive”.
For `COc1cc(CCc2ccc3c(c2)OCO3)oc(=O)c1`, the MIC in assay [4] was 32 µg/mL (≈ 117 µM).
`COc1ccc(C(=O)/C(=C/c2ccc(O)cc2)c2ccccc2)cc1`: the MIC in assay [2] was 60 µg/mL (≈ 182 µM). For the same compound, the IC50 in the assay on HEK293 stood at 50 µg/mL (≈ 151 µM).
Turning to `COc1cc(/C=C/c2ccccc2)oc(=O)c1` [DESMETHOXYYANGONIN], the MIC in assay [4] amounted to 4 µg/mL (≈ 17.5 µM).
As for `CCCCNC(=O)COc1ccc(/C=C(/C(=O)c2ccc(OC)cc2)c2ccccc2)cc1`, in assay [1], the “growth inhibition (GI)” value is “inactive”.
Take `CC(C)=CCOc1c2ccoc2cc2oc(=O)ccc12` [ISOIMPERATORIN]: the MIC in assay [4] worked out at 64 µg/mL (≈ 237 µM).
Take `CO[C@H]1/C=C/O[C@@]2(C)Oc3c(C)c(O)c4c(O)c(c(/C=N/N5CCN(C)CC5)c(O)c4c3C2=O)NC(=O)/C(C)=C\C=C\[C@H](C)[C@H](O)[C@@H](C)[C@@H](O)[C@@H](C)[C@H](OC(C)=O)[C@@H]1C` [RIFAMPIN]: the minimum inhibitory concentration (MIC) in assay [2] was 2 µg/mL (≈ 2.43 µM).
With `CCCCN(C)C(=O)COc1ccc(/C=C(/C(=O)c2ccc(OC)cc2)c2ccccc2)cc1`, in assay [1], the “growth inhibition (GI)” value was “inactive”.

The values are drawn from ChEMBL document CHEMBL2331345, “Syntheses of lipophilic chalcones and their conformationally restricted analogues as antitubercular agents” (Bioorg Med Chem Lett, 2013).
